Experimental data taken from patent publication US20240366495A1, “COMPOSITION FOR AMELIORATING WRINKLES USING FERMENTED EXTRACT OF CANNABIS STEM AND PREPARATION METHOD THEREOF” (KOREA INSTITUTE OF SCIENCE AND TECHNOLOGY, priority 2023, published 2024).

Key:
HDFs = test: Observation of cell morphology changes after UVB irradiation; type: cell-based, human; conditions: highest non-cytotoxic concentration, UVB 25 mJ/cm^2 after 2 hours, cultured 24 hours, FIG. 3
Procedure: An experiment for confirming an anti-wrinkle effect was conducted on each sample confirmed in Example 1.

[1] = test system: human dermal fibroblasts (HDFs); conditions: sample 0 to 1000 μg/mL, 24 hours, MTT, FIG. 1 / FIG. 2
Procedure: First, the cytotoxicity of each sample was confirmed using the following method. After human dermal fibroblasts (HDFs) were cultured in a 96-well culture plate at a concentration of 1.5×10^4 cells/well for 24 hours to reach a clustering coefficient of 70 to 80%, and then the sample prepared in Example 1 was treated at a concentration of 0 to 1000 μg/mL, and cultured in an incubator (37° C., 5% CO2) for an additional 24 hours. […] The absorbance of each well was measured at 570 nm using a microplate reader.

## O=C1O[C@H]([C@@H](O)CO)C(O)=C1O [vitamin C]
HDFs
  number of cells after UVB irradiation: number of cells increased to the level of the untreated group
[1]
  concentration at which cytotoxicity is exhibited: ≥ 500 µg/mL
